In article PMC7721954, “Preclinical comparison of four [^18F, ^natGa]rhPSMA-7 isomers: influence of the stereoconfiguration on pharmacokinetics” (EJNMMI Research, 2020):

Key:
PSMA = target: T1, PSMA (Homo sapiens, UniProt Q04609); assay: Competitive binding (IC50) on LNCaP cells vs ([125I]I-BA)KuE; conditions: 1 h, 4 °C, n = 5-9, read-out: IC50 (binding affinity)
T1 construct: host or cells: LNCaP cells
Method: (§1) Competitive binding studies were determined on LNCaP cells (1.5 × 10^5 cells in 1 mL/well) after incubation at 4 °C for 1 h, using (((S)-1-carboxy-5-(4-([^125I]iodo)benzamido)pentyl)carbamoyl)-L-glutamic acid (([^125I]I-BA)KuE; 0.2 nM/well) as reference radioligand (n = 5–9). Internalization studies of the radiolabeled ligands (0.5 nM/well) were performed on LNCaP cells (1.25 × 10^5 cells in 1 mL/well) at 37 °C for 1 h and accompanied by ([^125I]I-BA)KuE (0.2 nM/well), as reference. Data were corrected for non-specific binding and normalized to the specific internalization observed for the reference (n = 3–6). A detailed description of the experimental procedures was previously published.

[1] = test system: LNCaP tumor-bearing male CB-17 SCID mice; assay: Biodistribution 1 h p.i. with competition (co-injection of 2-PMPA); format: in vivo; conditions: co-injected with 2-PMPA (8 mg/kg), n = 3
Method: (§2) LNCaP tumor xenografts were established in 6–8 weeks old male CB-17 SCID mice as described previously.
(§3) 1–3 MBq (0.2 nmol) of the [^18F, ^natGa]rhPSMA inhibitors were injected into the tail vein of LNCaP tumor-bearing male CB-17 SCID mice that were sacrificed 1 h post injection (p.i.) (n = 4 for 7.1, n = 5 for 7.2, n = 4 for 7.3, n = 5 for 7.4 and n = 3 for 7). Selected organs were removed, weighed, and measured in a γ-counter. For competition studies, 8 mg/kg of 2-PMPA (2-(Phosphonomethyl)-pentandioic acid) were co-administered (n = 3).

[2] = test system: LNCaP tumor-bearing male CB-17 SCID mice; assay: Biodistribution 1 h p.i.; format: in vivo
Method: as §2, §3

LNCaP tumor-bearing mice = assay: Differential uptake and excretion pattern of isomers after injection of the diastereomeric mixture (radio-HPLC); format: in vivo; conditions: blood, liver, kidney and tumor, 30 min p.i., n = 4
Method: With the intention to identify even marginal differences in the in vivo behavior, all four [^18F, ^natGa]rhPSMA-7 isomers were co-evaluated in one single tumor-bearing mouse in order to quantify the differential uptake and excretion pattern of each isomer. For this purpose, the diastereomeric mixture [^18F, ^natGa]rhPSMA-7 was produced in high molar activity (AM) of 247–349 GBq/µmol (at end of synthesis) and the abundance of each isomer was determined by radio-HPLC. Mice (n = 4) were injected with [^18F, ^natGa]rhPSMA-7 (180–280 MBq, 0.9–1.0 nmol) and left under anesthesia. After 30 min p.i., they were sacrificed and urine, blood, liver, kidneys and tumor were collected and processed. Radioactivity was extracted from solid tissues by means of a Potter–Elvehjem tissue grinder (n = 1) or a ball mill (n = 3) and separated from the protein fraction by subsequent cartridge-based solid-phase extraction (SPE). Blood samples were diluted, centrifuged and the supernatant was purified by SPE (see supporting information). Urine and extracts from tissue samples were then analyzed by radio-HPLC to quantify the fraction of each isomer in each sample. Finally, the relative percentage difference between the abundance of each isomer in the injected diastereomeric mixture (values taken from the quality control) and the abundance of the respective isomer in each analyzed tissue or body fluid was calculated. […] PeakFit allows for automated nonlinear separation, analysis and quantification of HPLC elution profiles by deconvolution procedures that uses a Gaussian response function with a Fourier deconvolution/filtering algorithm (see Additional file 1: Fig. 7).
Extraction via the Potter-Elvehjem Tissue Grinder. Tumor and kidneys were separately homogenized in the tissue homogeniser with 1 mL of extraction buffer (850 μL 1 M HEPES pH 7.4, 100 μL 20 mM PMPA and 100 μL 1 M NaCl) for 30 min. The resulting homogenate was collected and centrifuged at 13000×g for 5 min. Subsequently, the supernatant was collected, centrifuged again (13000×g, 5 min) and loaded on a Strata X cartridge (33 μm Polymeric Reversed Phase 500 mg) preconditioned with 5 mL MeOH, followed by 5 mL H2O. After washing with 5 mL H2O, the cartridge was eluted with a 3:2 mixture (v/v) of MeCN in H2O supplemented with 1% TFA. For radio-HPLC analysis the eluates were diluted with water.
Extraction via the MM-400 Ball Mill. The samples (tumor, kidney, liver) were separately homogenized in a 2 mL tube together with 3 grinding balls (3 mm diameter) and 1 mL of extraction buffer (850 μL 1 M HEPES pH 7.4, 100 μL 20 mM PMPA and 100 μL 1 M NaCl) for 10 min at 30 Hz. The homogenate was centrifuged at 13 000×g for 5 min and the supernatant was collected. […]

human serum albumin = target: T2, human serum albumin (Homo sapiens, UniProt P02768); assay: Human serum albumin binding on Chiralpak HSA column; format: in vitro ADME
T2 construct: purchased
T2 sequence (P02768 25-609): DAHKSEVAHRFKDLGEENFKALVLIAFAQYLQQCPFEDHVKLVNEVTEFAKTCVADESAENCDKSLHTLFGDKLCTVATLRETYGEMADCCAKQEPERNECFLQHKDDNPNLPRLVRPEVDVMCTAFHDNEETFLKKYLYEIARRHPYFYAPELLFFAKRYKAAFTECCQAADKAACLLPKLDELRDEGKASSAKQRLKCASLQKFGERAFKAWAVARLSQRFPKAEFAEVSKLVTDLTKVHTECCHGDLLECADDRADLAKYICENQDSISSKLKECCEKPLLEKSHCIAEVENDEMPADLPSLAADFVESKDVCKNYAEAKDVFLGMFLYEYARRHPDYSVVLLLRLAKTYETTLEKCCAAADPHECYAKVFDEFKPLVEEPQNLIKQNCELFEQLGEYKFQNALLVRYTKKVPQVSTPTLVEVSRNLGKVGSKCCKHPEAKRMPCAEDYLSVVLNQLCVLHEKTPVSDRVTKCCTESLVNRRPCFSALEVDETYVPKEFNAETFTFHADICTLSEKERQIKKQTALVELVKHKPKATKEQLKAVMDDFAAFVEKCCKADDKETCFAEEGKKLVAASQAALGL
Method: Approximately 1 MBq of the ^18F-ligand was dissolved in 1 mL of a 1:1 mixture (v/v) of phosphate-buffered saline (PBS, pH 7.4) and n-octanol (n = 18–23). After vigorous mixing of the suspension for 3 min, the vial was centrifuged at 15,000 × g for 3 min and 100 μL aliquots of both layers were measured in a γ-counter. HSA binding of ^19F-^natGa-rhPSMA ligands was determined according to a previously published procedure.

LNCaP cells = assay: Internalization into LNCaP cells relative to ([125I]I-BA)KuE; format: cell-based; conditions: 1 h, 37 °C, percentage of reference ligand ([125I]I-BA)KuE, n = 3-6
Method: as §1

T1 sequence (Q04609 whole entry): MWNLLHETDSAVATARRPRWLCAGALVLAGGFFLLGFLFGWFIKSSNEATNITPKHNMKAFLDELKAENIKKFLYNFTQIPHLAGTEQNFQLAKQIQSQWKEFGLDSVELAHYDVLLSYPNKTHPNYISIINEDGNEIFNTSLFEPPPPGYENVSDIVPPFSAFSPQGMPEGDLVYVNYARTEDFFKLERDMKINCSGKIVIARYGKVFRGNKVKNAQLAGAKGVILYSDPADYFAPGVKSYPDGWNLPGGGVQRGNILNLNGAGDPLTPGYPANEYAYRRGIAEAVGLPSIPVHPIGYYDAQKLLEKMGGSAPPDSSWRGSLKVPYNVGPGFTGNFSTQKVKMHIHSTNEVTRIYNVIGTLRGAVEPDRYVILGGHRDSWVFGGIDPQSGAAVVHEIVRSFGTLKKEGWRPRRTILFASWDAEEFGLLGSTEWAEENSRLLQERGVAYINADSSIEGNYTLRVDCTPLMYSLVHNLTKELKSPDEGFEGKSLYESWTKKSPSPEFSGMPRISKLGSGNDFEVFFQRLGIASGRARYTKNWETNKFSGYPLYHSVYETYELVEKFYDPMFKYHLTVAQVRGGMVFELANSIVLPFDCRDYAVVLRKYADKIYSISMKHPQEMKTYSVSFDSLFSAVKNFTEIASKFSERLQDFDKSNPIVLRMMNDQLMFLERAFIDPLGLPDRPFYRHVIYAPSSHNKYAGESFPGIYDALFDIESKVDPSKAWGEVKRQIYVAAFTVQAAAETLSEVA

Compound	IC50 (PSMA)	Biodistribution Adrenals [1]	Biodistribution Blood [1]	Biodistribution Bone [1]	Biodistribution Heart [1]	Biodistribution Intestine [1]	Biodistribution Kidneys [1]	Biodistribution Liver [1]	Biodistribution Lung [1]	Biodistribution Muscle [1]	Biodistribution Pancreas [1]	Biodistribution Spleen [1]	Biodistribution Stomach [1]	Biodistribution Tumor [1]	Biodistribution Adrenals [2]	Biodistribution Blood [2]	Biodistribution Bone [2]	Biodistribution Heart [2]	Biodistribution Intestine [2]	Biodistribution Kidneys [2]	further results
CC(C)(C)[Si](F)(c1ccc(C(=O)NC[C@@H](NC(=O)CC[C@H](C(=O)O)N2CCN(CC(=O)[O-])CCN(CC(=O)[O-])CCN(CC(=O)[O-])CC2)C(=O)N[C@H](CCCCNC(=O)CCC(=O)NCCC[C@@H](NC(=O)CC[C@H](NC(=O)N[C@@H](CCC(=O)O)C(=O)O)C(=O)O)C(=O)O)C(=O)O)cc1)C(C)(C)C.[Ga+3] [[^18F, ^natGa]rhPSMA-7.1]	6.9 ± 1.4 nM	–	–	–	–	–	–	–	–	–	–	–	–	–	–	–	–	–	–	–	–
CC(C)(C)[Si](F)(c1ccc(C(=O)NC[C@H](NC(=O)CC[C@H](C(=O)O)N2CCN(CC(=O)[O-])CCN(CC(=O)[O-])CCN(CC(=O)[O-])CC2)C(=O)N[C@H](CCCCNC(=O)CCC(=O)NCCC[C@@H](NC(=O)CC[C@H](NC(=O)N[C@@H](CCC(=O)O)C(=O)O)C(=O)O)C(=O)O)C(=O)O)cc1)C(C)(C)C.[Ga+3] [[^18F, ^natGa]rhPSMA-7.2]	3.7 ± 1 nM	–	–	–	–	–	–	–	–	–	–	–	–	–	–	–	–	–	–	–	–
CC(C)(C)[Si]([18F])(c1ccc(C(=O)NC[C@H](NC(=O)CC[C@H](C(=O)O)N2CCN(CC(=O)[O-])CCN(CC(=O)[O-])CCN(CC(=O)[O-])CC2)C(=O)N[C@H](CCCCNC(=O)CCC(=O)NCCC[C@@H](NC(=O)CC[C@H](NC(=O)N[C@@H](CCC(=O)O)C(=O)O)C(=O)O)C(=O)O)C(=O)O)cc1)C(C)(C)C.[Ga+3] [[^18F, ^natGa]rhPSMA-7.2]	–	0.07 ± 0.10 % ID/g	1.1 ± 0.31 % ID/g	0.57 ± 0.39 % ID/g	0.47 ± 0.09 % ID/g	0.33 ± 0.10 % ID/g	10.9 ± 1.0 % ID/g	0.46 ± 0.07 % ID/g	1.1 ± 0.32 % ID/g	0.09 ± 0.03 % ID/g	0.12 ± 0.05 % ID/g	0.26 ± 0.07 % ID/g	0.21 ± 0.06 % ID/g	1.0 ± 0.13 % ID/g	1.3 ± 0.8 % ID/g	0.56 ± 0.20 % ID/g	0.31 ± 0.24 % ID/g	0.32 ± 0.13 % ID/g	0.18 ± 0.07 % ID/g	87.6 ± 28.8 % ID/g	Biodistribution Liver [2]: 0.35 ± 0.08 % ID/g; Biodistribution Lung [2]: 0.89 ± 0.38 % ID/g; Biodistribution Muscle [2]: 0.13 ± 0.07 % ID/g; Biodistribution Pancreas [2]: 0.21 ± 0.08 % ID/g; Biodistribution Spleen [2]: 10.1 ± 6.3 % ID/g; Biodistribution Stomach [2]: 0.19 ± 0.08 % ID/g; Biodistribution Tumor [2]: 6.5 ± 2.3 % ID/g; Abundance (enrichment) of the isomer in tissue compared to time point of injection (LNCaP tumor-bearing mice): lowest enrichment in blood, liver and kidney, but also the lowest uptake by tumors; HSA-binding (human serum albumin): 98%; Internalization (internalized activity) (LNCaP cells): 192 ± 16 % of reference

Further lines, with some results ahead:

IC50 (PSMA)	Biodistribution Adrenals [1]	Biodistribution Blood [1]	Biodistribution Bone [1]	Biodistribution Heart [1]	Biodistribution Intestine [1]	Biodistribution Kidneys [1]	Biodistribution Liver [1]	Biodistribution Lung [1]	Biodistribution Muscle [1]	Biodistribution Pancreas [1]	Biodistribution Spleen [1]	Biodistribution Stomach [1]	Biodistribution Tumor [1]	Biodistribution Adrenals [2]	Biodistribution Blood [2]	Biodistribution Bone [2]	Biodistribution Heart [2]	Biodistribution Intestine [2]	Biodistribution Kidneys [2]	Compound	further results
4.4 ± 1.1 nM	–	–	–	–	–	–	–	–	–	–	–	–	–	–	–	–	–	–	–	CC(C)(C)[Si](F)(c1ccc(C(=O)NC[C@@H](NC(=O)CC[C@@H](C(=O)O)N2CCN(CC(=O)[O-])CCN(CC(=O)[O-])CCN(CC(=O)[O-])CC2)C(=O)N[C@H](CCCCNC(=O)CCC(=O)NCCC[C@@H](NC(=O)CC[C@H](NC(=O)N[C@@H](CCC(=O)O)C(=O)O)C(=O)O)C(=O)O)C(=O)O)cc1)C(C)(C)C.[Ga+3] [[^18F, ^natGa]rhPSMA-7.3]	–
–	0.07 ± 0.09 % ID/g	0.55 ± 0.14 % ID/g	0.34 ± 0.22 % ID/g	0.26 ± 0.04 % ID/g	0.94 ± 0.97 % ID/g	15.5 ± 2.2 % ID/g	0.46 ± 0.14 % ID/g	0.69 ± 0.10 % ID/g	0.09 ± 0.02 % ID/g	0.11 ± 0.02 % ID/g	0.35 ± 0.02 % ID/g	0.76 ± 0.74 % ID/g	1.5 ± 0.4 % ID/g	2.2 ± 0.83 % ID/g	0.96 ± 0.24 % ID/g	0.38 ± 0.32 % ID/g	0.87 ± 0.17 % ID/g	0.35 ± 0.07 % ID/g	292 ± 45.1 % ID/g	CC(C)(C)[Si]([18F])(c1ccc(C(=O)NC[C@@H](NC(=O)CC[C@@H](C(=O)O)N2CCN(CC(=O)[O-])CCN(CC(=O)[O-])CCN(CC(=O)[O-])CC2)C(=O)N[C@H](CCCCNC(=O)CCC(=O)NCCC[C@@H](NC(=O)CC[C@H](NC(=O)N[C@@H](CCC(=O)O)C(=O)O)C(=O)O)C(=O)O)C(=O)O)cc1)C(C)(C)C.[Ga+3] [[^18F, ^natGa]rhPSMA-7.3]	Biodistribution Liver [2]: 0.69 ± 0.13 % ID/g; Biodistribution Lung [2]: 2.2 ± 0.35 % ID/g; Biodistribution Muscle [2]: 0.33 ± 0.15 % ID/g; Biodistribution Pancreas [2]: 0.63 ± 0.44 % ID/g; Biodistribution Spleen [2]: 16.6 ± 2.6 % ID/g; Biodistribution Stomach [2]: 0.44 ± 0.23 % ID/g; Biodistribution Tumor [2]: 18.3 ± 7.2 % ID/g; Abundance (enrichment) of the isomer in tissue compared to time point of injection (LNCaP tumor-bearing mice): higher; HSA-binding (human serum albumin): 97%; Internalization (internalized activity) (LNCaP cells): 161 ± 9 % of reference
3.6 ± 0.7 nM	–	–	–	–	–	–	–	–	–	–	–	–	–	–	–	–	–	–	–	CC(C)(C)[Si](F)(c1ccc(C(=O)NC[C@H](NC(=O)CC[C@@H](C(=O)O)N2CCN(CC(=O)[O-])CCN(CC(=O)[O-])CCN(CC(=O)[O-])CC2)C(=O)N[C@H](CCCCNC(=O)CCC(=O)NCCC[C@@H](NC(=O)CC[C@H](NC(=O)N[C@@H](CCC(=O)O)C(=O)O)C(=O)O)C(=O)O)C(=O)O)cc1)C(C)(C)C.[Ga+3] [[^18F, ^natGa]rhPSMA-7.4]	–
